Measurements reported in patent US9364462B2, “Alpha-1-adrenergic receptor agonist therapy” (The Regents of the University of California, priority 2012, dated 2016).

What was measured:
[1] = tested on: adult mouse cardiac muscle cells; assay: Protection of adult mouse cardiac muscle cells against doxorubicin (DOX); assay type: cell-based
Description: FIG. 3. A61603 protects adult cardiac muscle cells. In adult mouse cardiac muscle cells, A61603 at a low concentration activates ERK (left), and protects against a cardiotoxic cancer drug, (DOX) (right). These effects are not blocked by a beta-blocker, propranolol (Prop), which is current standard of care in heart failure therapy. That is, A61603 effects are additive to those of a beta-blocker. Knockout of the alpha-1A receptor (AKO) eliminates myocyte protection by A61603 (right), showing that the drug does indeed work through the alpha-1A, as expected.

neurons in brain slices = assay: Adult mouse brain slices injured with H2O2 ex vivo; assay type: cell-based; details: H2O2, 2 h
Method: FIG. 13. Brain slice model to study alpha-1A agonist in vitro. Thin brain slices were injured with hydrogen peroxide (H2O2), which simulates most forms of ischemic and traumatic injury at the cell level, in the presence or absence of A61603. After 2 hr, dead neurons (PI) and living neurons (ATP) were measured.
FIG. 14. A61603 protects neurons in brain slices from oxidative injury in vitro. Slices were treated with H2O2 or vehicle (Veh) for 2 hr, in the presence of A61603, or absence (Veh).
Studies were conducted in mice looking at alpha-1 agonist therapy, using A61603, in a model of traumatic brain injury. Alpha-1-ARs are 10 times more abundant in neurons than in cardiac myocytes, and the alpha-1A subtype is the most abundant. […]
Alpha-1A-adrenergic receptors (α1A-ARs) have a protective trophic role in the heart. α1A-AR levels are high in the brain, and neuroprotection by norepinephrine is known. […] Ex vivo, we quantified ATP levels (marker for survival) in mouse brain slices injured by 10μ, M H2O2 and treated for 2 h with A61603 (a1A-AR specific agonist) or Vehicle. We quantified the number of dead neurons (propidium iodide (PI) positive) out of total (NeuN positive) in the same treated slices by immunohistochemistry (IHC). In vivo, we measured brain infarct size (BrdU-positive glial cells) after transient focal ischemia and reperfusion (IR) in α1ABKO and WT mice. […]

Compound: CS(=O)(=O)Nc1c(O)ccc2c1CCCC2C1=NCCN1 (stereo not shown) [A61603, N-[1-(4,5-dihydro-1H-imidazol-2-yl)-6-hydroxy-tetralin-5-yl]methanesulfonamide]
- protection against cardiotoxic cancer drug (DOX) ([1]; FIG. 3 right): protects
- ERK activation and DOX protection in presence of beta-blocker propranolol ([1]; with propranolol (Prop)): not blocked
- ATP levels after H2O2 (neurons in brain slices; N=2, vehicle 5.5±0.5): 8±1 nmol/mg protein
- number of dead neurons caused by H2O2 (PI positive out of total NeuN positive) (neurons in brain slices; N=2, vehicle 86±5.3): 46±0.3
